We go through 73 compounds from patent US20020037885A1, “Therapeutic compounds” (priority 1999, published 2002).

Tested on in the first data set: not given
Test: not given
Details: not given
With `C#CCC(N)c1ccccc1-c1noc2ccccc12.O=C(O)/C=C/C(=O)O` (stereo not shown) [Example 12(5)], the melting point – broadly, the temperature, or range, at which the solid turns liquid – was 165 to 170 °C. On the same count and under the same terms, as for `COc1ccccc1CNCc1ccccc1-c1noc2ccccc12.O=C(O)C(=O)O`, the figure is 184 °C. With `C=CCC(N)c1ccccc1-c1ccon1.O=C(O)/C=C/C(=O)O` (stereo not shown), the melting point was in the range of 150 to 175 °C. Still for that read-out and setting: the value for `C=CC[C@@H](N)c1cc(F)ccc1-c1noc2ccccc12.O=C(O)/C=C/C(=O)O` was 171 to 173 °C; that for `C=CCC(N)c1ccccc1-c1cc2cc(F)ccc2s1.Cl` (stereo not shown) was 104 to 106 °C; that for `C=CCC(N)c1ccccc1-c1ccccc1Cl.O=C(O)/C=C/C(=O)O` (stereo not shown) was 189 to 191 °C. The same measure, in the same setting: as for `NC(CCCC(F)(F)F)c1ccccc1-c1noc2ccccc12.O=C(O)/C=C/C(=O)O` (stereo not shown), the figure is 203 to 210 °C. The compound `C=CCC(N)c1ccccc1-c1cc(Cl)ccc1C.O=C(O)/C=C/C(=O)O` (stereo not shown) yielded a melting point of 179 to 184 °C. Still for that read-out and setting: as for `C=CCC(N)c1ccccc1Cc1ccccc1OC.O=C(O)/C=C/C(=O)O` (stereo not shown), the figure is 172 to 174 °C. As for `C#CCC(N)c1ccccc1-c1noc2ccccc12.O=C(O)C(=O)O` (stereo not shown), the melting point is above 250 °C. `C=CCC(N)c1ccccc1-c1ccc(Cl)c(F)c1.O=C(O)/C=C/C(=O)O` (stereo not shown) had a melting point of 192 to 194 °C. For `C=CCC(N)c1ccccc1-c1cc(F)ccc1C.O=C(O)/C=C/C(=O)O` (stereo not shown), the melting point lay within 190 to 192 °C. The same measure, in the same setting: the value for `CC(C)CC(N)c1ccccc1-c1noc2cc(F)ccc12.O=C(O)/C=C/C(=O)O` (stereo not shown) was 174 to 184 °C. The same measure, in the same setting: the value for `c1ccc(CNC(Cc2ccccc2)c2ccccc2-c2noc3ccccc23)cc1` (stereo not drawn) [Example 16(2), α-[2-(1,2-benzisoxazol-3-yl)phenyl]-N-benzyl-benzeneethanamine] was 153 °C; that for `C=CCC(N)c1ccccc1-c1cc2ccccc2o1.Cl` (stereo not shown) was 225 to 227 °C; that for `C=CCC(N)c1ccccc1-c1coc2ccccc12.Cl` (stereo not shown) was 160 to 165 °C.

For the compound `C=CCC(N)c1ccccc1-c1ccc(C)c(F)c1.O=C(O)/C=C/C(=O)O` (stereo not shown), the melting point lay in the range of 194 to 196 °C.

`C=CCC(N)c1ccccc1-c1noc2cc(C(F)(F)F)ccc12.O=C(O)/C=C/C(=O)O` (stereo not shown) showed a melting point of 179 to 186 °C. `C=CC[C@H](N)c1ccccc1-c1noc2cc(F)ccc12.Cl`: the melting point lay within 166 to 174 °C. In the case of `C=CCC(N)c1ccccc1-c1ccccc1OC.Cl` (stereo not shown), the melting point is 236 to 240 °C. On the same count and under the same terms, as for `C=CCC(N)c1ccccc1-c1ccc(F)cc1.O=C(O)/C=C/C(=O)O` (stereo not shown), the figure is 201 to 203 °C; as for `Cl.Cl.c1cncc(CNCc2ccccc2-c2noc3ccccc23)c1`, 154 °C; as for `C=CCC(N)c1ccccc1-c1nc2ccccc2s1.Cl` (stereo not shown), 240 to 242 °C. On the same count and under the same terms, as for `C=CCNCc1ccccc1-c1noc2ccccc12.Cl`, the figure is 176 °C. The same measure, in the same setting: the value for `C=CCC(N)c1ccccc1-c1ccc(-c2ccccc2)c(F)c1.O=C(O)/C=C/C(=O)O` (stereo not shown) was 205 to 208 °C.

The compound `C=CCC(N)c1ccccc1Cc1ccccc1.O=C(O)/C=C/C(=O)O` (stereo not shown) gave a melting point of 181 to 183 °C. `C=CCC(N)c1cc(F)ccc1-c1noc2cc(Cl)ccc12.O=C(O)/C=C\C(=O)O` (stereo not shown) showed a melting point of 162 to 164 °C. Regarding `C=CC[C@@H](N)c1ccccc1-c1noc2cc(F)ccc12.Cl`, the melting point was 148 to 150 °C. The same measure, in the same setting: as for `C=CCC(N)c1ccccc1-c1cc2cc(Cl)ccc2o1.Cl` (stereo not shown), the figure is 226 to 228 °C. With `C=CCC(N)c1ccc(-c2noc3ccccc23)s1.O=C(O)/C=C/C(=O)O` (stereo not shown), the melting point was 182 to 189 °C. In the case of `C=CCC(N)c1cc(-c2noc3ccccc23)cs1.O=C(O)/C=C/C(=O)O` (stereo not shown), the melting point was 161 to 164 °C. Compound `C=CC[C@H](N)c1ccc(F)cc1-c1noc2ccccc12.O=C(O)/C=C/C(=O)O` registered a melting point of 97 to 108 °C. Same read-out and setting: the value for `C=CCC(N)c1cc(F)ccc1-c1noc2ccc(F)cc12.O=C(O)/C=C/C(=O)O` (stereo not shown) was 168 to 173 °C; that for `C=CCC(N)c1oc2ccccc2c1-c1noc2ccccc12.O=C(O)/C=C/C(=O)O` (stereo not shown) was 210 to 216 °C; that for `C=CCC(N)C1(c2noc3ccccc23)CC=CS1.O=C(O)/C=C/C(=O)O` (stereo not shown) was 173 to 178 °C.

Compound `C=CCC(N)c1ccccc1-c1cccc(Cl)c1C.O=C(O)/C=C/C(=O)O` (stereo not shown) came in with a melting point of 192 to 196 °C. The same measure, in the same setting: the value for `C=C(C)CC(N)c1ccccc1-c1noc2ccccc12.Cl` (stereo not shown) was 170 to 200 °C; that for `CCCC(N)c1ccccc1-c1noc2ccccc12.Cl` (stereo not shown) was 118 to 126 °C. Still for that read-out and setting: as for `C=CCC(N)c1ccc(F)cc1-c1noc2ccc(F)cc12.O=C(O)/C=C/C(=O)O` (stereo not shown), the figure is 164 to 169 °C; as for `C=CCC(N)c1ccccc1-c1cc2ccccc2s1.Cl` (stereo not shown), 106 to 108 °C; as for `c1ccc(C2CCCN2)c(-c2noc3ccccc23)c1` (stereo not shown) [Example 36(12), 2-[2-(1,2-benzisoxazol-3-yl)-phenyl]-pyrrolidine], 253 to 261 °C. For the compound `C=CCC(N)c1ccccc1-c1cc(-c2ccccc2)on1.O=C(O)/C=C/C(=O)O` (stereo not shown), the melting point lay within 165 to 180 °C.

Regarding `C=CCC(N)c1ccccc1-c1ccc(C)cc1F.O=C(O)/C=C/C(=O)O` (stereo not shown), the melting point lay within 209 to 211 °C.

`C=CCC(N)C1(c2noc3ccccc23)CC=CO1.O=C(O)/C=C/C(=O)O` (stereo not shown) registered a melting point of 158 to 165 °C. Compound `C=CCC(N)c1ccccc1-c1cc(C)on1.O=C(O)/C=C\C(=O)O` (stereo not shown) showed a melting point of 130 to 138 °C.

Take `CC(C)=CCC(N)c1ccccc1-c1noc2ccccc12.O=C(O)/C=C\C(=O)O` (stereo not shown): the melting point is 132 to 135 °C. Still for that read-out and setting: the value for `C1=CCC(c2ccccc2-c2noc3ccccc23)NC1` (stereo not shown) [Example 36(11), 2-[2-(1,2-benzisoxazol-3-yl)-phenyl]-1,2,3,6-tetrahydropyridine] was 242 to 268 °C. On to `C=CCC(N)c1ccccc1-c1cnc2ccccc2c1.O=C(O)/C=C/C(=O)O` (stereo not shown), for which the melting point lay within 194 to 197 °C. Same read-out and setting: the value for `CNCc1ccccc1-c1noc2ccccc12.Cl` was 230 °C; that for `CNC(Cc1ccccc1)c1ccccc1-c1noc2ccccc12.Cl` (stereo not shown) was 175 °C; that for `C#CCC(N)c1ccccc1-c1noc2cc(Cl)ccc12.Cl` (stereo not shown) was 209 to 214 °C. Compound `Cl.NCc1ccccc1-c1noc2ccccc12` gave a melting point of 233 °C. Compound `C=CCC(N)c1cc(F)ccc1-c1noc2ccccc12.O=C(O)/C=C/C(=O)O` (stereo not shown) gave a melting point of 176 to 180 °C. As to `C=CCC(N)c1ccccc1-c1ccc(C)cc1.O=C(O)/C=C/C(=O)O` (stereo not shown), the melting point fell in the range of 198 to 200 °C.

For `C=CCC(N)c1ccccc1-c1ccoc1.O=C(O)/C=C/C(=O)O` (stereo not shown), the melting point lay within 183 to 185 °C. For the compound `C=CCC(N)c1ccccc1-c1nc2ccccc2o1.O=C(O)/C=C/C(=O)O` (stereo not shown), the melting point was in the range of 202 to 204 °C.

The compound `C=CCC(N)c1ccccc1-c1ccccc1F.O=C(O)/C=C/C(=O)O` (stereo not shown) displayed a melting point of 225 to 226 °C. On the same count and under the same terms, the value for `C=CCC(N)c1cc(Cl)ccc1-c1noc2ccccc12.O=C(O)/C=C/C(=O)O` (stereo not shown) was 174 to 177 °C; that for `C#CCC(N)c1ccccc1-c1noc2ccccc12.O=C(O)/C=C/C(=O)O` (stereo not shown) [Example 13(4)] was 161 to 169 °C. Same read-out and setting: the value for `C=CCC(N)c1ccccc1N1C=CC=NC1.O=C(O)/C=C/C(=O)O` (stereo not shown) was 75 to 77 °C; that for `C=CCC(N)c1cccc(-c2noc3ccccc23)c1.O=C(O)/C=C\C(=O)O` (stereo not shown) was 148 to 150 °C. `C=CCC(N)c1ccccc1-c1csc2ccccc12.O=C(O)/C=C\C(=O)O` (stereo not shown) came in with a melting point of 185 to 187 °C. The same measure, in the same setting: the value for `CCCCC(N)c1ccccc1-c1noc2cc(Cl)ccc12.Cl` (stereo not shown) was 209 to 214 °C. In the case of `C=CC[C@@H](N)c1ccc(F)cc1-c1noc2ccccc12.O=C(O)/C=C/C(=O)O`, the melting point was in the range of 104 to 109 °C. In turn, `c1ccc(-c2noc3ccccc23)c(CNCc2ccccc2-c2noc3ccccc23)c1` [Example 22, 2-(1,2-Benzisoxazol-3-yl)-N-[[2-(1,2-benzisoxazol-3-yl)phenyl]methyl]-benzenemethanamine] returned a melting point of 138 °C.

`C=CCC(N)c1ccccc1Cc1cccc(OC)c1.O=C(O)/C=C/C(=O)O` (stereo not shown): the melting point is 163 to 165 °C. `C=CCC(N)c1ccccc1-c1noc2cc(F)ccc12.Cl` (stereo not shown) yielded a melting point of 192 to 195 °C. On the same count and under the same terms, the value for `CN(C)Cc1ccccc1-c1noc2ccccc12.Cl` was 190 °C. The same measure, in the same setting: the value for `C=CCC(N)c1ccccc1-c1cccs1.O=C(O)/C=C/C(=O)O` (stereo not shown) was 196 to 197 °C.

In the next data set the test system is marble burying behaviour in mice. Nature of the data set: Mouse Marble Burying Assay (BUR). It is filed as in vivo. The following applies: Mus musculus; sc; effective dose causing 50% inhibition of burying compared to control mice; read-out: BUR ED50 (SC). Here is the method:
This assay was carried out essentially according to the procedure described by Treit et al. (1981) Pharmacol Biochem Behav; 15; 619-626.
The results are presented as BUR ED50 (sc). This is the effective dose causing 50% inhibition of burying compared to control mice.
Consider `Cl.NC(CC1CC1)c1ccccc1-c1noc2ccccc12` (stereo not drawn) [36(6), 2-(1,2-benzisoxazol-3-yl)-α-(cyclopropylmethyl)-benzenemethanamine hydrochloride], for which the ED50 (as a rule, the dose at which the effect has come halfway, by size or by number of responders) is 1.5 mg/kg.

Still in this data set, the particulars now being: Table 2.
Turning to `C=CCC(N)c1ccccc1-c1cccc2ccccc12.Cl` (stereo not drawn) [15 (6), 2-(napth-1-yl)-α-2-propenyl-benzenemethanamine hydrochloride], the “BUR sc ED50(mg/kg)” value amounted to 11.6 mg/kg.

Staying with this data set, now noted: effective dose causing 50% inhibition of burying compared to control mice.
`Cl.NC(Cc1ccc(F)cc1)c1ccccc1-c1noc2ccccc12` (stereo not drawn) [Example 36, 2-(1,2-Benzisoxazol-3-yl)-α-(4-fluorobenzyl)-benzenemethanamine Hydrochloride.]: the BUR ED50 (SC) came to 2.8 mg/kg. Compound `C#CCC(N)c1ccccc1-c1noc2cc(Cl)ccc12.C#CCC(N)c1ccccc1-c1noc2cc(Cl)ccc12.O=C(O)/C=C/C(=O)O` (single isomer, unassigned; (-)) [13(5), (−)-2-(6-chloro-1,2-benzisoxazol-3-yl)-α-2-propynyl-benzenemethanamine (E)-butenedioate (2:1 salt)] displayed a BUR ED50 (SC) of 0.4 mg/kg.
